These results are taken from ChEMBL document CHEMBL1139607, “Synthetic lanostane-type triterpenoids as inhibitors of DNA topoisomerase II” (Bioorg Med Chem Lett, 2005).

One test has as its target DNA topoisomerase II (Homo sapiens, UniProt P11388+Q02880). The test is described as follows: Inhibitory concentration against human DNA topoisomerase II. Format: protein assay.
Another test concerns A549. Kind of test: Effective dose on human lung carcinoma (A549) cells. In kind it is functional. The settings on record: read-out: ED50 (the source's name).

Broadly, the IC50 is the concentration that gives 50% inhibition. A high value points to weaker potency in that assay.

`C[C@H](CC[C@@H](O)C(C)(C)O)[C@H]1CC[C@]2(C)C3CCC4C(C)(C)C(=O)C(C#N)=C[C@]4(C)C3=CC[C@]12C` (some centres not stated): the IC50 against DNA topoisomerase II stood at 83.23 µM. Also, in the test with A549, the EC50 came to 25.5 µM.

At DNA topoisomerase II, `C[C@H](CC[C@@H](O)C(C)(C)O)[C@H]1CC[C@]2(C)C3CCC4C(C)(C)C(=O)C(C=O)=C[C@]4(C)C3=CC[C@]12C` (some centres not stated) yielded a concentration for half-maximal inhibition (IC50) of 1.86 µM. In the test with A549, the EC50 came out at 13.1 µM.

Take `C[C@H](CC[C@@H](O)C(C)(C)O)[C@H]1CC[C@]2(C)C3CCC4C(C)(C)C(=O)C(C(=O)O)=C[C@]4(C)C3=CC[C@]12C` (some centres not stated): the IC50 on DNA topoisomerase II was 23.8 µM. Besides, in the test with A549, the EC50 was 7.33 µM.

Consider `C[C@H](CC[C@@H](O)C(C)(C)O)[C@H]1CC[C@]2(C)C3CCC4C(C)(C)C(=O)C=C[C@]4(C)C3=CC[C@]12C` (some centres not stated), for which the IC50 at DNA topoisomerase II turned out to be 149.97 µM. Further, the EC50 with A549 was found to be 26.9 µM.

The compound `C[C@H](CC[C@@H](O)C(C)(C)O)[C@H]1CC[C@]2(C)C3CCC4C(C)(C)C(=O)C(Cl)=C[C@]4(C)C3=CC[C@]12C` (some centres not stated) had an IC50 at DNA topoisomerase II of 106.8 µM. Also, the EC50 in the test on A549 amounted to 38.1 µM.

As for `COC(=O)C1=C[C@]2(C)C3=CC[C@]4(C)[C@@H]([C@H](C)CC[C@@H](O)C(C)(C)O)CC[C@]4(C)C3CCC2C(C)(C)C1=O` (some centres not stated), the IC50 against DNA topoisomerase II amounted to 66.51 µM. Further, the EC50 in the test with A549 turned out to be 3.96 µM.

As for `C[C@H](CC[C@@H](O)C(C)(C)O)[C@H]1CC[C@]2(C)C3CCC4C(C)(C)C(=O)C(Br)=C[C@]4(C)C3=CC[C@]12C` (some centres not stated), at DNA topoisomerase II, the IC50 was 18.27 µM. Besides, in the test with A549, the EC50 amounted to 14.3 µM.

For the compound `COc1cc([C@@H]2c3cc4c(cc3[C@@H](O[C@@H]3O[C@@H]5CO[C@@H](C)O[C@H]5[C@H](O)[C@H]3O)[C@H]3COC(=O)[C@H]23)OCO4)cc(OC)c1O` [ETOPOSIDE], the EC50 in the test on A549 was found to be 3.39 µM.

Consider `COC1=C[C@]2(C)C3=CC[C@]4(C)[C@@H]([C@H](C)CC[C@@H](O)C(C)(C)O)CC[C@]4(C)C3CCC2C(C)(C)C1=O` (some centres not stated), for which the half-maximal inhibitory concentration (IC50) at DNA topoisomerase II is 22.7 µM. In addition, the EC50 in the test with A549 turned out to be 29.6 µM.
